“Also recorded” adds a separate entry of the source. Read-outs that look alike come from different tables or passages of the source.
Assay: Plasma pharmacokinetics of Compound 1 and metabolite 1-7 (LC-MS/MS) in Parts C, D and E
Type: in vivo, human
Protocol: Doses were administered as the Compound 2 salt base. The free base Compound 1 equivalent is often given in parenthesis.
Part C was a randomized, double-blind, placebo-controlled MAD study divided into three cohorts. […] The dose escalation only proceeded following satisfactory review of the data.
HCV-infected patients were treatment-naïve with HCV RNA ≥5 log 10 IU/mL. HCV RNA was quantified using COBAS® AmpliPrep TaqMAN® v2.0 with LLQ of 15 IU/mL. Plasma drug levels were measured using LC-MS/MS. […] Cirrhosis was confirmed by prior liver biopsy or Fibroscan >12.5 kPa. […] Mean ages of enrolled subjects were 44, 39, and 56 years in the non-cirrhotic GT1b 600 mg dose cohort, non-cirrhotic GT3 cohort, and the cirrhotic cohort, respectively.
Plasma levels of metabolite 1-7 were measured using LC-MS/MS.

[1] = Part C, 150 to 600 mg Compound 2

## C[C@@]1(F)[C@H](O)[C@@H](CO)O[C@H]1n1cnc2c(=O)[nH]c(N)nc21 [Metabolite 1-7, 2-amino-9-((2R,3R,4R,5R)-3-fluoro-4-hydroxy-5-(hydroxymethyl)-3-methyltetrahydrofuran-2-yl)-1,9-dihydro-6H-purin-6-one]
600 mg QD of Compound 2, Parts C/D vs Part E
  PK in cirrhotic compared with non-cirrhotic subjects: similar; also recorded: comparable
NC subjects, based on metabolite 1-7 trough levels
  time at which steady state was reached: after the third or fourth dose; also recorded: day 3 or 4
Part C
  higher trough upon reaching steady state: 50%-60%
  time of peak formation after dosing: approximately 6 hours
[1]
  dose proportionality of plasma exposure (peak and total): dose proportional from 150 to 300 mg and less than dose proportional from 300 mg to 600 mg
  dose proportionality of trough levels: mostly dose proportional
Part C, NC GT1b, 150 mg/d Compound 2 QD, n=6
  AUC Day 1 (AUC, for Metabolite 1-7): 800 ± 213 ng/mLxh
Part C, NC GT1b, 300 mg/d Compound 2 QD, n=6
  AUC Day 1 (AUC, for Metabolite 1-7): 1414 ± 220 ng/mLxh
Part C, NC GT1b, 600 mg/d Compound 2 QD, n=6
  AUC Day 1 (AUC, for Metabolite 1-7): 2204 ± 486 ng/mLxh
Part C, NC GT1b, 600 mg/d Compound 2 QD, n=6, trough after the first dose
  C24 h Day 1: 0.0275 ± 0.00521 µg/mL
Part D, NC GT3, 600 mg/d Compound 2 QD, n=6
  AUC Day 1 (AUC, for Metabolite 1-7): 2253 ± 595 ng/mLxh
Part D, NC GT3, 600 mg/d Compound 2 QD, n=6, trough after the first dose
  C24 h Day 1: 0.0301 ± 0.0109 µg/mL
Part E, Child-Pugh A cirrhotic, 600 mg/d Compound 2 QD, n=6
  AUC Day 1 (AUC, for Metabolite 1-7): 2625 ± 873 ng/mLxh
Part E, Child-Pugh A cirrhotic, 600 mg/d Compound 2 QD, n=6, trough after the first dose
  C24 h Day 1: 0.0416 ± 0.0129 µg/mL
Cirrhotic patients, 600 mg of Compound 2
  steady state plasma trough level: 45.7 ng/mL
human, plasma, 150 mg, AUC of metabolite 1-7, range for the dose, 150 mg Compound 2 QD 7 days (FIG. 7)
  AUC: 0.397 to 1.43 µg·h/mL
human, plasma, 300 mg, AUC of metabolite 1-7, range for the dose, 300 mg Compound 2 QD 7 days (FIG. 7)
  AUC: 1.3 to 2.58 µg·h/mL
human, plasma, 600 mg, AUC of metabolite 1-7, range for the dose, 600 mg Compound 2 QD 7 days (FIG. 7)
  AUC: 2.25 to 5.38 µg·h/mL
human, plasma, 600 mg, metabolite 1-7 exposure (AUC) achieved, 600 mg Compound 2 QD, all subjects, cirrhotic or non-cirrhotic
  AUC: > 2 µg·h/mL
human, plasma, oral, 150 mg/d, Part C, NC GT1b, 150 mg/d Compound 2 QD, n=6, read-out: C24 h Day 1
  concentration at 24 h: 0.00808 ± 0.00348 µg/mL
human, plasma, oral, 150 mg/d, Part C, NC GT1b, 150 mg/d Compound 2 QD, n=6, read-out: Cmax Day 1
  Cmax: 0.0756 ± 0.0154 µg/mL
human, plasma, oral, 150 mg/d, steady state = mean of C24 at 72, 96, 120, 144 and 168 h, Part C, NC GT1b, 150 mg/d Compound 2 QD, n=6, read-out: C24 h SS
  concentration at 24 h: 0.0128 ± 0.00445 µg/mL
human, plasma, oral, 150 mg/d, steady state, Part C, NC GT1b, 150 mg/d Compound 2 QD, n=6, read-out: Cmax SS
  Cmax: 0.0811 ± 0.0339 µg/mL
human, plasma, oral, 150 mg/d, steady state, Part C, NC GT1b, 150 mg/d Compound 2 QD, n=6, read-out: T1/2 SS (converted)
  half-life: 12.5 h
human, plasma, oral, 300 mg/d, Part C, NC GT1b, 300 mg/d Compound 2 QD, n=6, read-out: Cmax Day 1
  Cmax: 0.123 ± 0.0166 µg/mL
human, plasma, oral, 300 mg/d, steady state = mean of C24 at 72, 96, 120, 144 and 168 h, Part C, NC GT1b, 300 mg/d Compound 2 QD, n=6, read-out: C24 h SS
  concentration at 24 h: 0.0261 ± 0.00756 µg/mL
human, plasma, oral, 300 mg/d, steady state, Part C, NC GT1b, 300 mg/d Compound 2 QD, n=6, read-out: Cmax SS
  Cmax: 0.22 ± 0.203 µg/mL
human, plasma, oral, 300 mg/d, steady state, Part C, NC GT1b, 300 mg/d Compound 2 QD, n=6, read-out: T1/2 SS (converted)
  half-life: 24.5 h
human, plasma, oral, 600 mg/d, Part C, NC GT1b, 600 mg/d Compound 2 QD, n=6, read-out: Cmax Day 1
  Cmax: 0.197 ± 0.0571 µg/mL
human, plasma, oral, 600 mg/d, Part C, NC GT1b, 600 mg/d Compound 2 QD, n=6, trough after the first dose, read-out: C24 h Day 1
  concentration at 24 h: 0.0275 µg/mL
human, plasma, oral, 600 mg/d, Part D, NC GT3, 600 mg/d Compound 2 QD, n=6, read-out: Cmax Day 1
  Cmax: 0.195 ± 0.0429 µg/mL
human, plasma, oral, 600 mg/d, Part D, NC GT3, 600 mg/d Compound 2 QD, n=6, trough after the first dose, read-out: C24 h Day 1
  concentration at 24 h: 0.0301 µg/mL
human, plasma, oral, 600 mg/d, Part E, Child-Pugh A cirrhotic, 600 mg/d Compound 2 QD, n=6, read-out: Cmax Day 1
  Cmax: 0.201 ± 0.0681 µg/mL
human, plasma, oral, 600 mg/d, Part E, Child-Pugh A cirrhotic, 600 mg/d Compound 2 QD, n=6, trough after the first dose, read-out: C24 h Day 1
  concentration at 24 h: 0.0416 µg/mL
human, plasma, oral, 600 mg/d, steady state = mean of C24 at 72, 96, 120, 144 and 168 h, Part C, NC GT1b, 600 mg/d Compound 2 QD, n=6, read-out: C24 h SS
  concentration at 24 h: 0.0469 ± 0.0155 µg/mL
human, plasma, oral, 600 mg/d, steady state = mean of C24 at 72, 96, 120, 144 and 168 h, Part D, NC GT3, 600 mg/d Compound 2 QD, n=6, read-out: C24 h SS
  concentration at 24 h: 0.0378 ± 0.0114 µg/mL
human, plasma, oral, 600 mg/d, steady state = mean of C24 at 72, 96, 120, 144 and 168 h, Part E, Child-Pugh A cirrhotic, 600 mg/d Compound 2 QD, n=6, read-out: C24 h SS
  concentration at 24 h: 0.0699 ± 0.0185 µg/mL
human, plasma, oral, 600 mg/d, steady state, Part C, NC GT1b, 600 mg/d Compound 2 QD, n=6, read-out: Cmax SS
  Cmax: 0.233 ± 0.0429 µg/mL
human, plasma, oral, 600 mg/d, steady state, Part C, NC GT1b, 600 mg/d Compound 2 QD, n=6, read-out: T1/2 SS (converted)
  half-life: 28.9 h
human, plasma, oral, 600 mg/d, steady state, Part D, NC GT3, 600 mg/d Compound 2 QD, n=6, read-out: Cmax SS
  Cmax: 0.263 ± 0.104 µg/mL
human, plasma, oral, 600 mg/d, steady state, Part D, NC GT3, 600 mg/d Compound 2 QD, n=6, read-out: T1/2 SS (converted)
  half-life: 27.9 h
human, plasma, oral, 600 mg/d, steady state, Part E, Child-Pugh A cirrhotic, 600 mg/d Compound 2 QD, n=6, read-out: T1/2 SS (converted)
  half-life: 24.4 h
human, plasma, oral, 600 mg/d, steady state, Part E, Child-Pugh A cirrhotic, 600 mg/d Compound 2 QD, n=6, read-out: Tmax SS
  Tmax: 6 h
human, plasma, oral, Part C, read-out: half-life
  half-life: 13 to 30 h
In vivo
  food effect on total and trough exposure: No food effect
Steady state, Part C, NC GT1b, 150 mg/d Compound 2 QD, n=6
  AUC SS (AUC, for Metabolite 1-7): 962 ± 409 ng/mLxh
Steady state, Part C, NC GT1b, 300 mg/d Compound 2 QD, n=6
  AUC SS (AUC, for Metabolite 1-7): 1828 ± 453 ng/mLxh
Steady state, Part C, NC GT1b, 600 mg/d Compound 2 QD, n=6
  AUC SS (AUC, for Metabolite 1-7): 2839 ± 572 ng/mLxh
Steady state, Part D, NC GT3, 600 mg/d Compound 2 QD, n=6
  AUC SS (AUC, for Metabolite 1-7): 3117 ± 1048 ng/mLxh
Steady state, Part E, Child-Pugh A cirrhotic, 600 mg/d Compound 2 QD, n=6
  AUC SS (AUC, for Metabolite 1-7): 3569 ± 1214 ng/mLxh
Subjects with cirrhosis
  time at which steady state was reached: day 5; also recorded: after the fifth dose

Reference: patent US11690860B2, “Treatment of HCV infected patients with cirrhosis” (Atea Pharmaceuticals, Inc., priority 2018, dated 2023)
